The target of data set [1] is Prothrombin (Homo sapiens, UniProt P00734). Kind of data set: Inhibitory activity against thrombin.
Data set [2] is described as follows: Vss on i.v. administration of 2 mg/kg was measured in dog. Format: ADME, organism-based, Canis lupus familiaris. Also on record: dose 2 mg/kg, route intravenous. Particulars: in vivo, iv, read-out: Vss.
The test system of data set [3] is Caco-2. Description: Apparent permeability coefficient (Papp) from the apical to basolateral side in the human Caco-2 monolayer was determined. The format is functional. For orientation: Caco-2 monolayers are a common model of the intestinal barrier.
The nature of data set [4]: Clearance on i.v. administration of 2 mg/kg was measured in dog. The format is ADME, organism-based, Canis lupus familiaris. Also noted: dose 2 mg/kg, route intravenous. Conditions: in vivo, iv.
The nature of data set [5]: Cmax on p.o. administration of 10 mg/kg was measured in dog. Format: ADME, organism-based, Canis lupus familiaris. Also noted: dose 10 mg/kg, route oral. Particulars: in vivo, po.
Data set [6] is described as follows: Bioavailability in dog. Conditions: in vivo. The format is ADME, organism-based, Canis lupus familiaris.
Data set [7] can be described thus: Half life on i.v. administration of 2 mg/kg was measured in dog. Format: ADME, organism-based, Canis lupus familiaris. Also on record: dose 2 mg/kg, route intravenous. Particulars: in vivo, iv.
For data set [8], the species on record is Homo sapiens. Kind of data set: Concentration of compound required to double the human activated partial thromboplastin time. The format is functional.

56 compounds from ChEMBL document CHEMBL1146801, “Oxyguanidines. Part 2: Discovery of a novel orally active thrombin inhibitor through structure-based drug design and parallel synthesis” (Bioorg Med Chem Lett, 2004) can be followed below.

Turning to `CCN(C(=O)c1cc(C)cc(OCCCONC(=N)N)c1)C1CCCCC1`, in data set [1], the Ki (commonly the dissociation constant of the complex between target and ligand, obtained from inhibition or displacement) is 0.006 µM.

Regarding `CCCN(Cc1ccoc1)C(=O)c1cc(C)cc(OCC2(CON=C(N)N)CC2)c1`, the Vd in data set [2] worked out at 1.7 L/kg. The Activity in data set [3] amounted to 4.11e-06 cm/s. The clearance (commonly the volume of plasma or blood freed of the substance per unit of time) in data set [4] is 0.252 L/h/kg. Besides, the concentration in data set [5] peaked (Cmax) at 5.8 µM. Besides, the bioavailability (usually the share of a dose that reaches the circulation, judged against a reference dose that is usually intravenous) in data set [6] was 73%. In data set [7], the half-life (commonly how long it takes for the measured level to halve) was 4.4 h. `CCCN(Cc1ccncc1)C(=O)c1cc(C)cc(OCCCONC(=N)N)c1` came in with an inhibition constant Ki in data set [1] of 0.073 µM. On the same count and under the same terms, under `CCCN(CC1CCC1)C(=O)c1cc(Cl)cc(OCCCON=C(N)N)c1` stands 0.016 µM; under `CCSCCN(Cc1ccoc1)C(=O)c1cc(C)cc(OCCCON=C(N)N)c1`, 0.006 µM; under `N=C(N)NOCCCOc1cc(Cl)cc(C(=O)N(CCN2CCOCC2)CC2CC2)c1`, 0.159 µM. Still for that read-out and setting: under `Cc1cc(OCCCONC(=N)N)cc(C(=O)N(Cc2ccsc2)CC2CC2)c1` stands 0.031 µM; under `Cc1cc(OCCCONC(=N)N)cc(C(=O)N(Cc2ccoc2)C2CCC2)c1`, 0.022 µM. The same measure, in the same setting: under `N=C(N)NOCCCOc1cc(Cl)cc(C(=O)N(Cc2ccoc2)CC2CC2)c1` stands 0.017 µM; under `Cc1cc(OCCCON=C(N)N)cc(C(=O)N(Cc2ccoc2)C(C)C)c1`, 0.068 µM. For the compound `Cc1cc(OCCCON=C(N)N)cc(C(=O)N(Cc2ccoc2)CC2CC2)c1`, in data set [3], the Activity came out at 3e-06 cm/s. In data set [8], the 2 x APTT is 8.4 µM.

Consider `CCCCN(Cc1ccoc1)C(=O)c1cc(C)cc(OCCCONC(=N)N)c1`, for which the Ki in data set [1] was 0.008 µM. On the same count and under the same terms, with `CCCN(Cc1cccnc1)C(=O)c1cc(C)cc(OCCCONC(=N)N)c1` the figure was 0.052 µM. As to `C=CCN(C(=O)c1cc(C)cc(OCCCONC(=N)N)c1)C1CCCC1`, the Vd in data set [2] is 2.8 L/kg. In addition, in data set [1], the inhibition constant (Ki) is 0.01 µM. In data set [4], the clearance turned out to be 0.672 L/h/kg. In data set [5], the concentration peaked (Cmax) at 3.7 µM. In addition, the bioavailability in data set [6] amounted to 89%. The compound further gave a half-life in data set [7] of 3.7 h. For the compound `CCCN(CC1CC1)C(=O)c1cc(Cl)cc(OCCCONC(=N)N)c1`, the affinity in data set [1], expressed as Ki, was 0.023 µM. Still for that read-out and setting: with `CCCN(Cc1ccc(F)cc1)C(=O)c1cc(C)cc(OCCCON=C(N)N)c1` the figure was 0.021 µM; with `CCN(Cc1ccncc1)C(=O)c1cc(Cl)cc(OCCCONC(=N)N)c1`, 1.6 µM. As to `Cc1cc(OCCCONC(=N)N)cc(C(=O)N(CCCCCC(N)=O)C2CCCCC2)c1`, in data set [1], the inhibition constant (Ki) was 0.008 µM.

`CCOC(=O)CCN(CC1CC1)C(=O)c1cc(C)cc(OCCCONC(=N)N)c1` displayed a Ki in data set [1] of 0.065 µM. On the same count and under the same terms, under `N=C(N)NOCCCOc1cc(Cl)cc(C(=O)N(CCc2ccccn2)CC2CC2)c1` stands 0.059 µM; under `CCCN(CC1CCCC1)C(=O)c1cc(Cl)cc(OCCCONC(=N)N)c1`, 0.038 µM; under `CCCN(Cc1ccccn1)C(=O)c1cc(C)cc(OCCCON=C(N)N)c1`, 0.094 µM. The compound `COC(=O)CCN(CC1CC1)C(=O)c1cc(Cl)cc(OCCCONC(=N)N)c1` registered a Ki in data set [1] of 0.038 µM.

Regarding `Cc1cc(OCCCONC(=N)N)cc(C(=O)N(CCC(N)=O)Cc2ccoc2)c1`, the Ki in data set [1] was determined as 0.11 µM. On the same count and under the same terms, under `N=C(N)NOCCCOc1cc(Cl)cc(C(=O)N2CCCCCC2)c1` stands 0.47 µM; under `C=CCN(Cc1cccs1)C(=O)c1cc(Cl)cc(OCCCONC(=N)N)c1`, 0.147 µM. Turning to `CCCN(Cc1ccoc1)C(=O)c1cc(C)cc(OCCCONC(=N)N)c1`, the Vd in data set [2] was 2.4 L/kg. The same compound registered a Ki in data set [1] of 0.009 µM. The compound further had a clearance in data set [4] of 0.606 L/h/kg. The concentration in data set [5] peaked (Cmax) at 4.5 µM. Also, the bioavailability in data set [6] was found to be 62%. This compound also showed a half-life in data set [7] of 3.8 h. `CN(C(=O)c1cc(Cl)cc(OCCCONC(=N)N)c1)C1CCCC1`: the inhibition constant Ki in data set [1] amounted to 0.373 µM. Same read-out and setting: under `N=C(N)NOCCCOc1cc(Cl)cc(C(=O)N2CCN(c3ccccc3)CC2)c1` stands 2.9 µM. Still for that read-out and setting: under `N=C(N)NOCCCOc1cc(Cl)cc(C(=O)N(CCC(=O)O)CC2CC2)c1` stands 0.213 µM. On the same count and under the same terms, under `N=C(N)NOCCCOc1cc(Cl)cc(C(=O)N(CCc2ccncc2)CC2CC2)c1` stands 0.052 µM. Take `Cc1cc(OCCCONC(=N)N)cc(C(=O)N(Cc2ccncc2)CC2CC2)c1`: the inhibitory constant (Ki) in data set [1] came to 0.024 µM. Turning to `Cc1cc(OCCCON=C(N)N)cc(C(=O)N(Cc2ccoc2)CC2CCCCC2)c1`, affinity in data set [1] was put at a Ki of 0.021 µM. For `N=C(N)NOCCCOc1cc(Cl)cc(C(=O)N2CCc3ccccc3C2)c1`, in data set [1], the Ki came to 0.171 µM. The compound `CCCN(CC1CCC1)C(=O)c1cc(C)cc(OCCCON=C(N)N)c1` displayed an inhibition constant (Ki) in data set [1] of 0.017 µM. Same read-out and setting: with `N=C(N)NOCCCOc1cc(Cl)cc(C(=O)N2CCN(c3ccccn3)CC2)c1` the figure was 0.64 µM; with `N=C(N)NOCCCOc1cc(Cl)cc(C(=O)N(CCc2cccnc2)CC2CC2)c1`, 0.047 µM. As for `CCCN(Cc1ccoc1)C(=O)c1cc(C)cc(OCCCON=C(N)N)c1`, in data set [3], the Activity stood at 4.05e-06 cm/s. The 2 x APTT in data set [8] turned out to be 11.5 µM. Turning to `Cc1cc(OCC2(CONC(=N)N)CC2)cc(C(=O)N(Cc2ccoc2)CC2CC2)c1`, the Vd in data set [2] amounted to 2.5 L/kg. The inhibition constant (Ki) in data set [1] was determined as 0.004 µM. In addition, in data set [4], the clearance was found to be 0.342 L/h/kg. For the same compound, the Cmax (as a rule, the maximum level reached in the sampled fluid or tissue) in data set [5] stood at 4.1 µM. The compound also gave a bioavailability in data set [6] of 77%. Further, the half-life in data set [7] was 5.9 h.

On to `Cc1cc(OCC2(CON=C(N)N)CC2)cc(C(=O)N(Cc2ccoc2)CC2CC2)c1`, for which the Activity in data set [3] was 2.17e-06 cm/s. In addition, the 2 x APTT in data set [8] worked out at 8.7 µM. The like results for `C=CCN(C(=O)c1cc(C)cc(OCCCON=C(N)N)c1)C1CCCC1` were, in that order, 4.86e-06 cm/s and 11.3 µM. With `C=CCN(Cc1ccoc1)C(=O)c1cc(Cl)cc(OCCCONC(=N)N)c1`, the affinity in data set [1], expressed as Ki, was 0.02 µM. This lies in the double-digit nanomolar range. Same read-out and setting: under `Cc1cc(OCCCON=C(N)N)cc(C(=O)N(CCC(C)C)Cc2ccoc2)c1` stands 0.007 µM; under `COCCN(Cc1ccoc1)C(=O)c1cc(C)cc(OCCCON=C(N)N)c1`, 0.028 µM. The same measure, in the same setting: with `CN(C(=O)c1cc(Cl)cc(OCCCON=C(N)N)c1)C1CCCCC1` the figure was 0.033 µM; with `N=C(N)NOCCCOc1cc(Cl)cc(C(=O)N2CCC(Cc3ccccc3)CC2)c1`, 1.5 µM.

As for `Cc1cc(OCCCONC(=N)N)cc(C(=O)N(Cc2ccccn2)CC2CC2)c1`, in data set [1], the inhibition constant (Ki) came out at 0.086 µM. This Ki is about 17-fold lower than that of the compound before. Still for that read-out and setting: under `Cc1cc(OCCCONC(=N)N)cc(C(=O)N(Cc2cccnc2)CC2CC2)c1` stands 0.034 µM. Same read-out and setting: with `C[C@H](CS)C(=O)N1CCC[C@H]1C(=O)O` [CAPTOPRIL] the figure was 0.048 µM; with `C=CCN(C(=O)c1cc(C)cc(OCCCONC(=N)N)c1)C1CCCCC1`, 0.009 µM. On the same count and under the same terms, under `CCN(Cc1ccccc1)C(=O)c1cc(Cl)cc(OCCCONC(=N)N)c1` stands 0.091 µM; under `N=C(N)NOCCCOc1cc(Cl)cc(C(=O)N(CCN2CCCC2)CC2CC2)c1`, 0.204 µM; under `CCCN(Cc1nccs1)C(=O)c1cc(C)cc(OCCCONC(=N)N)c1`, 0.195 µM. Compound `COCCN(CC1CC1)C(=O)c1cc(Cl)cc(OCCCONC(=N)N)c1` gave a Ki in data set [1] of 0.156 µM. Still for that read-out and setting: with `N=C(N)NOCCCOc1cc(Cl)cc(C(=O)N2CCCCC2)c1` the figure was 0.88 µM.

Consider `Cc1cc(OCCCONC(=N)N)cc(C(=O)N(Cc2ccoc2)CC2CC2)c1`, for which the Vd in data set [2] came out at 1.6 L/kg. This compound had an inhibitory constant (Ki) in data set [1] of 0.011 µM. In addition, in data set [4], the clearance turned out to be 0.468 L/h/kg. For the same compound, the peak level in data set [5] (Cmax) was 5.1 µM. Also, the bioavailability in data set [6] stood at 68%. The compound further showed a half-life in data set [7] of 2.5 h.
